Experimental data from the supplement of paper PMC13380429.

Assays:
Settings in all cases: 72 h
HepG2 [1] = experiment: relative viability EC50 (midpoint between 100% and the lowest measured viability); higher = less toxic
Vero E6 [2] = experiment: as above
Calu-3 [3] = experiment: as above
U2OS [4] = experiment: drug sensitivity score (DSS) for viability; higher = more toxic; extreme values may be limits of the assay
HepG2 [5] = experiment: as above
Vero E6 [6] = experiment: as above
Caco-2 [7] = experiment: as above
Calu-3 [8] = experiment: as above
U2OS [9] = experiment: cell viability relative to DMSO; higher = less toxic
HepG2 [10] = experiment: as above
Vero E6 [11] = experiment: as above
Caco-2 [12] = experiment: as above
Calu-3 [13] = experiment: as above
U2OS [14] = experiment: relative viability EC50 (midpoint between 100% and the lowest measured viability); higher = less toxic
Caco-2 [15] = experiment: as above

| SMILES | relative viability EC50 (HepG2 [1]) | relative viability EC50 (Vero E6 [2]) | relative viability EC50 (Calu-3 [3]) | drug sensitivity score (U2OS [4]) | drug sensitivity score (HepG2 [5]) | drug sensitivity score (Vero E6 [6]) | drug sensitivity score (Caco-2 [7]) | drug sensitivity score (Calu-3 [8]) | cell viability (U2OS [9]; 1 nM) | cell viability (U2OS [9]; 10 nM) | cell viability (U2OS [9]; 100 nM) | cell viability (U2OS [9]; 1000 nM) | cell viability (U2OS [9]; 10000 nM) | cell viability (HepG2 [10]; 1 nM) | cell viability (HepG2 [10]; 10 nM) | cell viability (HepG2 [10]; 100 nM) | cell viability (HepG2 [10]; 1000 nM) | cell viability (HepG2 [10]; 10000 nM) | cell viability (Vero E6 [11]; 1 nM) | cell viability (Vero E6 [11]; 10 nM) | cell viability (Vero E6 [11]; 100 nM) | cell viability (Vero E6 [11]; 1000 nM) | cell viability (Vero E6 [11]; 10000 nM) | cell viability (Caco-2 [12]; 1 nM) | cell viability (Caco-2 [12]; 10 nM) | cell viability (Caco-2 [12]; 100 nM) | cell viability (Caco-2 [12]; 1000 nM) | cell viability (Caco-2 [12]; 10000 nM) | cell viability (Calu-3 [13]; 1 nM) | cell viability (Calu-3 [13]; 10 nM) | cell viability (Calu-3 [13]; 100 nM) | cell viability (Calu-3 [13]; 1000 nM) | cell viability (Calu-3 [13]; 10000 nM) | relative viability EC50 (U2OS [14]) | relative viability EC50 (Caco-2 [15]) |
| --- | --- | --- | --- | --- | --- | --- | --- | --- | --- | --- | --- | --- | --- | --- | --- | --- | --- | --- | --- | --- | --- | --- | --- | --- | --- | --- | --- | --- | --- | --- | --- | --- | --- | --- | --- |
| COC(=O)C1=C(C)NC(C)=C(C(=O)OCCN2CCN(C(c3ccccc3)c3ccccc3)CC2)C1c1cccc([N+](=O)[O-])c1 (centres undefined) [manidipine] | > 10 µM | > 10 µM | > 10 µM | 1.5 | 0.3 | 0 | 2.5 | 0.8 | 98.3% | 100% | 93.8% | 97.6% | 71.9% | 105% | 104% | 104% | 104% | 81.4% | 100% | 103% | 96.7% | 100% | 93.3% | 98.4% | 93.9% | 104% | 94.5% | 65.4% | 94.6% | 103% | 104% | 91.5% | 85.4% |  |  |
| Cc1ccc(-c2ncn(-c3ccc(Nc4nccc(-c5cccc(N6CCOCC6)c5)n4)cc3)n2)cn1 [SR-3306] | 3.04 µM | > 10 µM | > 10 µM | 0.6 | 3.3 | 0 | 2.6 | 0 | 102% | 104% | 97.9% | 103% | 78% | 99.8% | 90.8% | 100% | 98.9% | 40.9% | 109% | 109% | 106% | 99.1% | 92.9% | 99.3% | 98.7% | 95.9% | 92.2% | 67.5% | 99.9% | 98.3% | 87.8% | 94.7% | 98.6% | > 10 µM |  |
| Cc1c(I)c(=O)n(-c2ccccc2)n1C [iodoantipyrine] | > 10 µM | > 10 µM | > 10 µM |  | 0 | 0 | 0 | 0 |  |  |  |  |  | 94.7% | 102% | 95% | 102% | 91.2% | 98.8% | 93.3% | 96.9% | 95.3% | 101% | 107% | 104% | 94.8% | 99.4% | 98.7% | 105% | 106% | 96.1% | 93.7% | 93.2% |  | > 10 µM |
| O=C(O)c1cc(-c2ccc(F)cc2F)ccc1O [diflunisal] |  | > 10 µM | > 10 µM |  |  | 0 | 0 | 0 |  |  |  |  |  |  |  |  |  |  | 103% | 100% | 92.9% | 98.4% | 97.1% | 93.3% | 105% | 93.9% | 105% | 104% | 103% | 109% | 109% | 99.6% | 95.7% |  | > 10 µM |
| O=C(NCCS(=O)(=O)c1ccc(C(F)(F)F)cn1)c1ccc(Cl)cc1 [GSK3787] | > 10 µM | > 10 µM | > 10 µM |  | 0 | 0 | 0 | 0 |  |  |  |  |  | 97.7% | 102% | 117% | 99.6% | 102% | 97.8% | 97.3% | 91.2% | 89.9% | 101% | 99.8% | 95.5% | 102% | 99.7% | 99.8% | 104% | 94.8% | 103% | 100% | 97.7% |  | > 10 µM |
| CN1CCN(C2=Cc3ccccc3Oc3ccc(Cl)cc32)CC1 [2-CMDO] |  | > 10 µM | > 10 µM | 0 |  | 0 | 0 | 0 | 101% | 98.6% | 96.7% | 100% | 90.1% |  |  |  |  |  | 102% | 99.5% | 103% | 103% | 93.3% | 107% | 90.6% | 99.7% | 103% | 92.3% | 103% | 102% | 98.2% | 112% | 95.6% | > 10 µM | > 10 µM |
| Nc1ccc(C(=O)NCC(=O)O)cc1 [4-aminohippuric-acid] | > 10 µM | > 10 µM | > 10 µM |  | 0 | 0 | 0.1 | 0 |  |  |  |  |  | 100% | 107% | 99% | 104% | 89.8% | 97.5% | 99.1% | 101% | 100% | 96.2% | 97.1% | 99.7% | 100% | 89.5% | 93% | 106% | 91.1% | 109% | 106% | 101% |  | > 10 µM |
| COc1cccc(OC)c1OCCNC[C@H]1COc2ccccc2O1 [WB-4101] | > 10 µM | > 10 µM | > 10 µM |  | 0 | 0 | 0.1 | 1.4 |  |  |  |  |  | 106% | 109% | 107% | 103% | 93.2% | 104% | 100% | 99.1% | 98.2% | 98.5% | 105% | 104% | 106% | 106% | 85.3% | 107% | 102% | 104% | 90.9% | 80.8% |  | > 10 µM |
| COc1ccc2c(O[C@@H]3C[C@H]4C(=O)N[C@]5(C(=O)NS(=O)(=O)C6CC6)C[C@H]5/C=C\CCCCN(C)C(=O)[C@@H]4C3)cc(-c3nc(C(C)C)cs3)nc2c1C [simeprevir] | > 10 µM | > 10 µM | > 10 µM | 0 | 0.4 | 0 | 1.1 | 0 | 104% | 98.8% | 99.9% | 99.4% | 105% | 102% | 99.4% | 92.7% | 101% | 81.5% | 102% | 105% | 95.4% | 101% | 102% | 94.8% | 100% | 112% | 102% | 70.8% | 94.9% | 99.7% | 88.7% | 100% | 102% | > 10 µM |  |
| Cc1cnc(CNC(=O)c2c(=O)c3ccc(N4CCCN(C)CC4)nc3n3c2sc2ccccc23)cn1 [CX-5461] | 1.16 µM |  | > 10 µM | 0 | 7.6 | 4.7 | 0.5 | 0.3 | 99.5% | 102% | 96.9% | 106% | 98.4% | 110% | 108% | 110% | 71.6% | 30.5% | 114% | 92.3% | 106% | 84.2% | 53.3% | 106% | 114% | 95.5% | 121% | 75.9% | 93.9% | 105% | 100% | 100% | 84% | > 10 µM | > 10 µM |
| Cc1cnc(-c2cnc(NCCNc3ccc(C#N)cn3)nc2-c2ccc(Cl)cc2Cl)[nH]1 | > 10 µM | > 10 µM | > 10 µM |  | 0 | 1.2 | 0 | 0 |  |  |  |  |  | 104% | 99.3% | 107% | 113% | 98.4% | 101% | 100% | 94.9% | 97.6% | 76.8% | 99.5% | 105% | 95.7% | 110% | 99.6% | 87.6% | 107% | 99.1% | 110% | 89.7% |  | > 10 µM |
| COc1cccc(OCCCN)c1-c1cc(Nc2cnc(C#N)cn2)n[nH]1 | 0.0431 µM |  | 0.0872 µM | 31.6 | 21.7 | 9 | 17.6 | 13.3 | 101% | 86.7% | 5.2% | 2.8% | 2.5% | 97.4% | 97.4% | 35.7% | 38.3% | 25.6% | 92.9% | 101% | 84.9% | 61.1% | 65.3% | 98.9% | 101% | 86.7% | 15.5% | 21% | 106% | 99.9% | 69.6% | 48.1% | 57.8% | 0.022 µM | 0.194 µM |
| O=c1[nH]c2ccccc2n1C1CCN(CCOc2ccccc2)CC1 [oxiperomide] |  | > 10 µM | > 10 µM | 0 | 1.9 | 0.7 | 0 | 0.1 | 98.9% | 108% | 100% | 99.8% | 91.6% | 104% | 112% | 95.7% | 98.1% | 64.7% | 97.4% | 95.8% | 98.6% | 99.4% | 78.7% | 104% | 105% | 87.3% | 104% | 87.2% | 112% | 101% | 97.1% | 97.9% | 88.2% | > 10 µM | > 10 µM |
| N#Cc1cnc2c(Cl)cc(NCc3cn(CCN4CCCCCC4)nn3)cc2c1Nc1ccc(F)c(Cl)c1 [cot-inhibitor-1] | > 10 µM | > 10 µM | > 10 µM | 0.7 | 0.2 | 0 | 1.7 | 0 | 102% | 103% | 101% | 101% | 77% | 95% | 107% | 96.7% | 120% | 80.6% | 94.2% | 102% | 92.2% | 96.9% | 103% | 92.1% | 99.7% | 105% | 98% | 67.8% | 104% | 103% | 99.5% | 96.9% | 96.2% | > 10 µM |  |
| CCCCCCCCCCCCCCCC(=O)OC(CC(=O)[O-])C[N+](C)(C)C (centres undefined) [palmitoylcarnitine] | > 10 µM |  | > 10 µM | 0 | 0 | 1.1 | 0 | 0.6 | 103% | 104% | 99.9% | 100% | 102% | 99.3% | 96.8% | 107% | 95.8% | 94.9% | 96.2% | 104% | 104% | 99.6% | 73% | 110% | 102% | 102% | 92.5% | 93% | 98.3% | 94.3% | 100% | 97% | 84.2% | > 10 µM | > 10 µM |
| Nc1n[n+]([O-])c2ccccc2[n+]1[O-] [tirapazamine] |  | > 10 µM | > 10 µM | 0 | 2.8 | 0 | 0 | 0 | 100% | 98.9% | 99.1% | 97.8% | 99% | 92.3% | 91.1% | 93.2% | 88.9% | 63.9% | 101% | 97.6% | 101% | 95.6% | 90.7% | 99.9% | 102% | 92.3% | 94.8% | 90.4% | 104% | 103% | 107% | 97.8% | 102% | > 10 µM | > 10 µM |
